According to ChEMBL document CHEMBL1130824, “The novel cyclopropapyrroloindole(CPI) bisalkylators bearing methoxycarbonyl and trifluoromethyl groups” (Bioorg Med Chem Lett, 1998):
Values after ≈ are worked out from the molar mass of the structure shown. One block for each molecule: values may come before it.

Tests used:
HeLa = assay: Concentration required to inhibit the growth of HeLaS3 cells; assay type: functional, cell-based, Homo sapiens
Colon 26 [1] = assay: Compound was tested for antitumor activity against colon 26 murine adenocarcinoma infected CDF1 mice when administered at a dose of 0.977 ug/Kg intravenously; assay type: functional; settings: Mus musculus, Colon 26, iv; read-out: TGI
Colon 26 [2] = assay: Compound was tested for antitumor activity against colon 26 murine adenocarcinoma infected CDF1 mice when administered at a dose of 15.6 ug/Kg intravenously; assay type: functional; settings: Mus musculus, Colon 26, iv; read-out: TGI
Colon 26 [3] = assay: Compound was tested for antitumor activity against colon 26 murine adenocarcinoma infected CDF1 mice when administered at a dose of 31.3 ug/Kg intravenously; assay type: functional; settings: Mus musculus, Colon 26, iv; read-out: TGI
Colon 26 [4] = assay: Compound was tested for antitumor activity against colon 26 murine adenocarcinoma infected CDF1 mice when administered at a dose of 4000 ug/Kg intravenously; assay type: functional; settings: Mus musculus, Colon 26, iv; read-out: TGI
[5] = Homo sapiens, HeLa, read-out: IC50

IC50 (HeLa; hela): 0.0049 ng/mL (≈ 0.00499 nM)
Structure (SMILES): COC(=O)c1c(C(F)(F)F)[nH]c2c(O)cc3c(c12)[C@H](CCl)CN3C(=O)c1cc2cc(-c3ccc4[nH]c(C(=O)N5C[C@@H](CCl)c6c5cc(O)c5[nH]c(C(F)(F)F)c(C(=O)OC)c65)cc4c3)ccc2[nH]1
inhibition in vivo at 0.000977 mg/kg (Colon 26 [1]): 84%

IC50 (HeLa; [5]): 22 ng/mL (≈ 22.1 nM)
Structure (SMILES): COC(=O)c1c(C(F)(F)F)[nH]c2c(O)cc3c(c12)[C@H](CCl)CN3C(=O)c1cc2cc(Oc3ccc4[nH]c(C(=O)N5C[C@@H](CCl)c6c5cc(O)c5[nH]c(C(F)(F)F)c(C(=O)OC)c65)cc4c3)ccc2[nH]1
inhibition in vivo at 4 mg/kg (Colon 26 [4]): 88%

Further lines, the molecule ahead of its results:

Structure (SMILES): COC(=O)c1c(C(F)(F)F)[nH]c2c(O)cc3c(c12)[C@H](CCl)CN3C(=O)c1cc2cc(NC(=O)Nc3ccc4[nH]c(C(=O)N5C[C@@H](CCl)c6c5cc(O)c5[nH]c(C(F)(F)F)c(C(=O)OC)c65)cc4c3)ccc2[nH]1
IC50 (HeLa; [5]): 0.091 ng/mL (≈ 0.0875 nM)
inhibition in vivo at 0.0156 mg/kg (Colon 26 [2]): 94%

Structure (SMILES): COC(=O)c1c(C(F)(F)F)[nH]c2c(O)cc3c(c12)[C@H](CCl)CN3C(=O)c1cc2cc(CCc3ccc4[nH]c(C(=O)N5C[C@@H](CCl)c6c5cc(O)c5[nH]c(C(F)(F)F)c(C(=O)OC)c65)cc4c3)ccc2[nH]1
IC50 (HeLa; [5]): 0.21 ng/mL (≈ 0.208 nM)
inhibition in vivo at 0.0313 mg/kg (Colon 26 [3]): 87%

Structure (SMILES): COC(=O)c1c(C(F)(F)F)[nH]c2c(O)cc3c(c12)[C@H](CCl)CN3C(=O)c1cc2cc(C#Cc3ccc4[nH]c(C(=O)N5C[C@@H](CCl)c6c5cc(O)c5[nH]c(C(F)(F)F)c(C(=O)OC)c65)cc4c3)ccc2[nH]1
IC50 (HeLa; [5]): 0.35 ng/mL (≈ 0.348 nM)
inhibition in vivo at 0.0313 mg/kg (Colon 26 [3]): 82%

Structure (SMILES): COC(=O)c1c(C(F)(F)F)[nH]c2c(O)cc3c(c12)[C@H](CCl)CN3C(=O)c1cc2cc(Cc3ccc4[nH]c(C(=O)N5C[C@@H](CCl)c6c5cc(O)c5[nH]c(C(F)(F)F)c(C(=O)OC)c65)cc4c3)ccc2[nH]1
IC50 (HeLa; [5]): 33 ng/mL (≈ 33.1 nM)
inhibition in vivo at 4 mg/kg (Colon 26 [4]): 80%

Structure (SMILES): Cc1c[nH]c2c(O)cc3c(c12)[C@H](CCl)CN3C(=O)c1cc2cc(NC(=O)Nc3ccc4[nH]c(C(=O)N5C[C@@H](CCl)c6c5cc(O)c5[nH]cc(C)c65)cc4c3)ccc2[nH]1 [BIZELESIN]
IC50 (HeLa; [5]): 0.06 ng/mL (≈ 0.0736 nM)
inhibition in vivo at 0.0156 mg/kg (Colon 26 [2]): 90%
